Source: US20240335483A1, “NEW METHOD TO TREAT AUTOIMMUNE DISEASES” (INSTITUT NATIONAL DE LA SANTÉ ET DE LA RECHERCHE MÉDICALE, priority 2021, published 2024)
Entries after “also recorded” stand apart in the source; their conditions may differ.

Legend:
Type in all cases: in vivo, mouse
NOD mice = assay: Spontaneous diabetes incidence
Experimental: Female NOD, BALB/c, C57BL/6J, C57BL/6J camp−/− in different ages were used, bred and housed in specific pathogen-free conditions. Recombinant mouse CRAMP1-39 and scrambled (sc)CRAMP1-39 were produced under aseptic conditions and provided after endotoxin removal processing (Innovagen). Newborn NOD mice were treated by intra-colonic treatment between 10 and 21 days of age every 3 days with CRAMP or scCRAMP (10 μg in 10 μL/mouse/injection) or vehicle (PBS-1% H2O). For blocking TLR experiments, newborn NOD mice were treated between 7 and 14 days of age every 3 days with TLR2 inhibitor CU CTP22 (25 μg in 10 μL/mouse/injection) or TLR4 inhibitor TAK242 (25 μg in 10 μL/mouse/injection) or with TLR5 inhibitor TH1020 (20 μg in 10 μL/mouse/injection) or with vehicle (PBS 1% DMSO). All inhibitors are from Tocris. For modulating IFNα experiment, newborn NOD mice were treated between 7 and 14 days of age every 3 days with anti-IFNα receptor mAb (200 μg in 10 μL/mouse/injection) (BioXcell) or equivalent amount of isotype control (mouse IgGI) or gardiquimod (50 μg in 10 μL/mouse/injection) or vehicle (PBS-1% H2O). For CRAMP-expressing probiotic experiment, pregnant NOD mice were given CRAMP-expressing Lactococcus lactis or conventional L. lactis ([…] colony forming units (cfu) in 100 μL PBS/mice) by oral gavage one day before delivery. For cross-fostering experiments, NOD pups were adopted immediately at birth by recipient mice (C57BL/6, BALB/c, CRAMP-treated NOD mice or NOD mice), that delivered the same day and pups from the two litters were maintained in the same cage. All animal experimental protocols were approved by the ethic committee for animal experimentation (APAFIS #3535-2015092416202090).
NOD mice were treated as described above with CRAMP or scCRAMP, anti-IFNαR mAb, gardiquimod or were born from CRAMP-expressing L. lactis treated NOD mice or were cross-fostered by CRAMP-treated NOD mice. […]
Diabetes incidence was plotted according to the Kaplan-Meier method. […] All data were analyzed using GraphPad Prism v6 software.

Treg cells = assay: Flow cytometry of regulatory T cells in tissues
Experimental: (§1) Pancreata were perfused with a solution of collagenase P in HBSS-1% HEPES (0.75 mg.ml-1, Roche), then dissected free from surrounding tissues. Pancreata were digested at 37° C. for 8 min. Digestion was stopped by adding HBSS-10% FCS-1% EDTA followed by extensive washes. For flow cytometry analysis, islets were isolated on a discontinuous Ficoll® PM400 gradient (Sigma-Aldrich) and then isolated islets were handpicked to exclude contaminations from intrapancreatic lymph nodes. Cells were released from the islets by incubation at 37° C. for 6 min in non-enzymatic cell dissociation solution (Sigma-Aldrich). For RT-qPCR, to avoid potential contamination by exocrine tissue, islets were purified by handpicking in 3 consecutive baths of HBSS-10% FCS supplemented with 1% DNAse 1.
Immune cells from the colon were isolated using the Lamina Propria Dissociation Kit from Miltenyi (#130-097-410), combined with gentleMACS™ Octo dissociator with heaters (#130-096-427) according to the manufacturer's instructions.
(§2) Single cell suspensions were prepared from various tissues, surface staining was performed after FcγRII/III blocking (anti-CD16/CD32) for 5 min at 4° C. and were surface stained for 30 min at 4° C. Staining buffer was PBS containing 2% FCS, 0.5% EDTA and 0.1% sodium azide. […] Stained cells were analyzed on a Becton Dickinson Fortessa flow cytometer. Data were analyzed with Flowjo™ v10 software.

microbiota = assay: 16S rDNA gene sequencing of microbiota composition; conditions: 5 weeks of age, after intracolonic CRAMP in newborn NOD mice
Experimental: Stools were recovered from 5 mice from 5 independent cages per group, and were stored at −80° C. in DNA/RNA Shield™ (Zymo Research, #R1100-250) immediately after emission before shipment to Zymo Research (ZymoBIOMICS Services). For CRAMP treatment experiments, pups from different litters were randomly mixed and then separate before treatment with CRAMP or scCRAMP. The samples were processed and analyzed with the ZymoBIOMICS® Targeted Sequencing Service for Microbiome Analysis (Zymo Research, Irvine, CA). DNA Extraction: One of three different DNA extraction kits was used depending on the sample type and sample volume. In most cases, the ZymoBIOMICS® DNA Miniprep Kit (Zymo Research, Irvine, CA) was used. For low biomass samples, such as skin swabs, the ZymoBIOMICS® DNA Microprep Kit (Zymo Research, Irvine, CA) was used as it permits for a lower elution volume, resulting in more concentrated DNA samples. For a large sample volume, the ZymoBIOMICS@-96 MagBead DNA Kit (Zymo Research, Irvine, CA) was used to extract DNA using an automated platform. Targeted Library Preparation: Bacterial 16S ribosomal RNA gene targeted sequencing was performed using the Quick-16S™ NGS Library Prep Kit (Zymo Research, Irvine, CA). The bacterial 16S primers amplified the V1-V2 or V3-V4 region of the 16S rRNA gene. These primers have been custom-designed by Zymo Research to provide the best coverage of the 16S gene while maintaining high sensitivity. Fungal ITS gene targeted sequencing was performed using the Quick-16S™ NGS Library Prep Kit with custom ITS2 primers substituted for 16S primers. […] The final PCR products were quantified with qPCR fluorescence readings and pooled together based on equal molarity. The final pooled library was cleaned up with the Select-a-Size DNA Clean & Concentrator™ (Zymo Research, Irvine, CA), then quantified with TapeStation®(Agilent Technologies, Santa Clara, CA) and Qubit® (Thermo Fisher Scientific, Waltham, […]). […] Bioinformatics Analysis: Unique amplicon sequences were inferred from raw reads using the DADA2 pipeline. […]

[1] = system: IGRP206-214-specific CD8+ T cells; assay: Flow cytometry of diabetogenic IGRP206-214-specific CD8+ T cells; conditions: 12-week-old NOD mice after intracolonic CRAMP as newborns
Experimental: as §1
as §2, with “azide. For detection of the subsets of conventional dendritic cells, cells suspension were surface stained with anti-CD45, -TCRβ, -CD19-CD11c, -F4/80, -CD103, -CD11b.” for “azide.”

type I IFN signature = assay: Colonic type I IFN signature (RNAseq, RT-qPCR)
Experimental: (§3) Total RNA was isolated using the Nucleospin RNA XS kit (Macherey-Nagel) from a minimum of 100 handpicked islets per mouse or using Nucleospin RNA kit (Macherey-Nagel) for colon tissue. RNA was reverse transcribed to synthesized cDNA using the high capacity cDNA reverse transcription kit (ThermoFisher) and measurements were performed by qPCR using Power SYBR® Green (ThermoFisher) on a 7900HT Fast System (Applied Biosystems). Resulting levels of fluorescence were submitted to relative quantification by normalization against a housekeeping gene (GAPDH) and expressed as 2-(ΔCT) values.
Colon tissue was recovered from 5 mice from 5 independent cages per group. Total RNA were isolated from colon using the RNeasy Kit (QIAGEN) including a DNAse treatment step. RNA quality was assessed using RNA Screen Tape 6000 Pico LabChips with the Tape Station (Agilent Technologies) and RNA concentration was measured by spectrophometry using the Xpose (Trinean). RNAseq libraries were prepared starting from 1 μg of total RNA using the TruSeq Stranded mRNA LT Sample Prep Kit (Illumina) as recommended by the manufacturer. […] A mean of 23 million of paired-end reads was produced per library sample (between 21 to 25 million of passing filter reads). The generated data were analyzed using the Ingenuity Pathway Analysis software (Qiagen).

TLR2 ligands = assay: TLR2 ligand levels in colon extract (HEK-blue TLR reporter cells); conditions: NOD mice, intracolonic CRAMP treatment
Experimental: (§4) Colons from 2-week-old mice were recovered in 100 μL PBS, cut in some pieces and homogenized by vortexing. Cell-free supernatant was recovered after centrifugation at 10 000 g for 10 min. A 100-fold dilution was used to measure TLR2 and TLR4 ligand levels in the supernatants using HEK-blue™ TLR reporter cells ([…], #hkb-mtlr2 and #hkb-mtlr4) according to the manufacturer protocol.

TLR4 ligands = assay: TLR4 ligand levels in colon extract (HEK-blue TLR reporter cells); conditions: NOD mice, intracolonic CRAMP treatment
Experimental: as §4

[2] = system: inflammatory and regulatory cytokines in colon; assay: Cytokine expression in colon (RT-qPCR)
Experimental: as §3

Molecule	diabetes incidence (NOD mice; gardiquimod, intracolonic, newborn female NOD mice)	frequency of pancreatic LAP+ Treg cells (Treg cells; male NOD mice, intracolonic gardiquimod at 10 days of age, pancreatic islets at 12 weeks of age)	development (incidence) of diabetes (NOD mice; female NOD mice, intracolonic CRAMP every 3 days from 10 to 21 days of age, control scCRAMP, FIG. 1A)	incidence of diabetes in adopted NOD mice (NOD mice; newborn NOD mice from untreated dams cross-fostered to NOD dams treated by CRAMP between 10 and 21 days of age, FIG. 1)	abundance of the genera Lactobacillus and Bifidobacterium (microbiota)	abundance of the genus Alistipes (microbiota)	microbiota composition (microbiota; control scCRAMP)	frequency and absolute number of Treg cells (Treg cells; prediabetic 12-week-old NOD mice after intracolonic CRAMP as newborns, pancreas, colon, PLN, MLN, spleen)	frequency and absolute number of IGRP206-214-specific CD8+ effector T cells [1]	type I IFN signature in the colon (type I IFN signature; colonic CRAMP treatment of 10-day-old NOD mice)	type I IFN signature in the newborns (type I IFN signature; newborn NOD mice cross-fostered by NOD dams previously treated with CRAMP at 10 days of age)	level of TLR2 ligands in the colon (TLR2 ligands)	level of TLR4 ligands in the colon (TLR4 ligands)	cytokine profile in the colon ([2]; CRAMP treatment of adult NOD mice)	expression of inflammatory cytokines in colon ([2]; adult NOD colon after CRAMP treatment of newborn NOD mice)
CCNCc1nc2c(N)nc3ccccc3c2n1CC(C)(C)O [gardiquimod, reference compound]	increased	decreased the frequency of pancreatic LAP+ Treg cells in the adult NOD mice													
CRAMP			significantly prevented the development of diabetes	decrease of diabetes development; also recorded: decreased incidence of diabetes in the adopted NOD mice	increased abundance	decreased abundance	changed microbiota composition in the adult mice	increased the frequency, but not the absolute number, of Treg cells in the pancreas and colon of adult NOD mice	decreased in the pancreas and PLN in the adult mice	reduced	prevented the aberrant type I IFN signature in the newborns	reduced the levels of TLR2 and TLR4 ligands in the colon	reduced the levels of TLR2 and TLR4 ligands in the colon	inefficient at changing the cytokine profile in the colon	prevented the overexpression of inflammatory cytokines in the adult NOD colon
